Experimental data published in US8586596B2, “Compounds as cannabinoid receptor ligands” (AbbVie Inc., priority 2010, dated 2013).
Where two headings read alike, the source gives them in different places.

Experiments:
human CB2 receptors = molecular target: T1, human CB2 receptors (Homo sapiens, UniProt P34972); assay: CB2 radioligand binding assay ([3H]CP 55,940 competition), human
T1 construct: expressed in transfected cells; membrane preparation

rat CB2 receptors = molecular target: T2, rat CB2 receptors (Rattus norvegicus, UniProt Q9QZN9); assay: CB2 radioligand binding assay ([3H]CP 55,940 competition), rat
T2 construct: expressed in transfected cells; membrane preparation
T2 sequence (Q9QZN9 1-360): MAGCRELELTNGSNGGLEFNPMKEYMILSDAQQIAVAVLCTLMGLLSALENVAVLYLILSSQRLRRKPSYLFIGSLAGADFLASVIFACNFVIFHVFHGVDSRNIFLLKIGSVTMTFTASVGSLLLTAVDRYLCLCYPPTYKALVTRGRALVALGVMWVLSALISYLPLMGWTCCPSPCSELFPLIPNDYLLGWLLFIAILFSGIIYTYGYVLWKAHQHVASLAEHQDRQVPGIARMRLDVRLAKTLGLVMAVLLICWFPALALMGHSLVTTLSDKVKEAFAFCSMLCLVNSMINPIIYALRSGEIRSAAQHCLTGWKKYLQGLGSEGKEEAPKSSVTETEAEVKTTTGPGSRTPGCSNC

T1 sequence (P34972 whole entry): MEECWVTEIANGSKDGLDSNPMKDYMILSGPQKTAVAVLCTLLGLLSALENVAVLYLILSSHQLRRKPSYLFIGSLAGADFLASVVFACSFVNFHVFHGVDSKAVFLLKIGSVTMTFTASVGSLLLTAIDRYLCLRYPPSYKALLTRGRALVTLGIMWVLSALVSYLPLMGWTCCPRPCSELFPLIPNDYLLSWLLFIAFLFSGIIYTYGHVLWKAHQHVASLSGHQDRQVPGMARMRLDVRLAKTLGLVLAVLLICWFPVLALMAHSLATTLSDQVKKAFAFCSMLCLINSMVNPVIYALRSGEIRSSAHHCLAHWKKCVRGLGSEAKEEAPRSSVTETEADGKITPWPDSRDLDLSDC

Row | Compound | Ki (human CB2 receptors) [nM] | Ki (rat CB2 receptors) [nM] | Ki (human CB2 receptors; membranes of HEK293 cells stably expressing human CB2, 0.5 nM [3H]CP 55,940, read-out: human CB2 binding (Ki)) [nM] | Ki (rat CB2 receptors; membranes of HEK293 cells stably expressing rat CB2, 0.5 nM [3H]CP 55,940, read-out: rat CB2 binding (Ki)) [nM]
1 | CCCCn1/c(=N/C(=O)c2cc(C(F)(F)F)ccc2OC[C@H](C)O)sc2ncncc21 [Example 3, N-[(2Z)-1-butyl[1,3]thiazolo[5,4-d]pyrimidin-2(1H)-ylidene]-2-{[(2S)-2-hydroxypropyl]oxy}-5-(trifluoromethyl)benzamide] | 10 | 4 |  | 
2 | CCCCn1/c(=N/C(=O)c2cc(C(F)(F)F)ccc2OC[C@H](C)O)sc2ncnc(O)c21 [Example 1, N-[(2Z)-1-butyl-7-hydroxy[1,3]thiazolo[5,4-d]pyrimidin-2(1H)-ylidene]-2-{[(2S)-2-hydroxypropyl]oxy}-5-(trifluoromethyl)benzamide] |  |  | 233 | 157
3 | CCCCn1/c(=N/C(=O)c2cc(C(F)(F)F)ccc2OC[C@H](C)O)sc2nccnc21 [Example 2, N-[(2Z)-3-butyl[1,3]thiazolo[4,5-b]pyrazin-2(3H)-ylidene]-2-{[(2S)-2-hydroxypropyl]oxy}-5-(trifluoromethyl)benzamide] | 2 | 4.1 |  | 
4 | CCCCn1/c(=N/C(=O)c2cc(C(F)(F)F)ccc2OC[C@H](C)O)sc2cnn(C)c(=O)c21 [Example 4, N-[(2Z)-3-butyl-5-methyl-4-oxo-4,5-dihydro[1,3]thiazolo[4,5-d]pyridazin-2(3H)-ylidene]-2-{[(2S)-2-hydroxypropyl]oxy}-5-(trifluoromethyl)benzamide] | 36 | 5 |  | 
